Results reported in ChEMBL document CHEMBL1201862, “PubChem BioAssay data set” (2004).
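Dose response: 5 concentrations. Exposure: 48 h. Format: 96-well plates. Endpoint: linear interpolation; highest concentration if not reached. Abbreviation: GI50, concentration required for 50% inhibition of growth.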 The source made the active and inactive calls. Rule as the data show it: active = GI50 up to about 1.1 µM and inactive = higher.

How the values were obtained:
Experiment in all cases: NCI tumour cell line growth inhibition, 48 h
A549 = system: A549
BT-549 = system: BT-549
HCT-15 = system: HCT-15
HOP-62 = system: HOP-62
HOP-92 = system: HOP-92
KM12 = system: KM12
MCF7 = system: MCF7
MDA-MB-231 = system: MDA-MB-231
MDA-MB-435 = system: MDA-MB-435
MDA-N = system: MDA-N
NCI-H226 = system: NCI-H226
NCI-H23 = system: NCI-H23
OVCAR-4 = system: OVCAR-4
OVCAR-8 = system: OVCAR-8
PC-3 = system: PC-3
SF-295 = system: SF-295
SK-MEL-2 = system: SK-MEL-2
SK-OV-3 = system: SK-OV-3
SN12C = system: SN12C
UACC-62 = system: UACC-62

SMILES | GI50 (A549) | GI50 (BT-549) | GI50 (HCT-15) [µM] | GI50 (HOP-62) | GI50 (HOP-92) | GI50 (KM12) | GI50 (MCF7) | GI50 (MDA-MB-231) | GI50 (MDA-MB-435) | GI50 (MDA-N) | GI50 (NCI-H226) | GI50 (NCI-H23) | GI50 (OVCAR-4) | GI50 (OVCAR-8) | GI50 (PC-3) | GI50 (SF-295) | GI50 (SK-MEL-2) | GI50 (SK-OV-3) | GI50 (SN12C) | GI50 (UACC-62)
O=[N+]([O-])c1ccc(C2ON=C(c3ccccc3)N2C23CC4CC(CC(C4)C2)C3)cc1 (stereo not given) | > 10 µM (inactive) | > 10 µM (inactive) | > 10 | > 10 µM (inactive) | > 10 µM (inactive) | > 10 µM (inactive) | > 10 µM (inactive) | > 10 µM (inactive) | > 10 µM (inactive) | > 10 µM (inactive) | > 10 µM (inactive) | > 10 µM (inactive) | > 10 µM (inactive) | > 10 µM (inactive) | > 10 µM (inactive) | > 10 µM (inactive) | > 10 µM (inactive) | > 10 µM (inactive) | > 10 µM (inactive) | > 10 µM (inactive)
C[n+]1[n-]o/c(=N\N=O)c1-c1cc(-c2/c(=N/N=O)o[n-][n+]2C)cc(-c2/c(=N\N=O)o[n-][n+]2C)c1 | > 100 µM (inactive) | > 100 µM (inactive) | > 100 | > 100 µM (inactive) | > 100 µM (inactive) | > 100 µM (inactive) | > 100 µM (inactive) | > 100 µM (inactive) | > 100 µM (inactive) | > 100 µM (inactive) | > 100 µM (inactive) | > 100 µM (inactive) | > 100 µM (inactive) | > 100 µM (inactive) | > 100 µM (inactive) | > 100 µM (inactive) | > 100 µM (inactive) | > 100 µM (inactive) | > 100 µM (inactive) | > 100 µM (inactive)
Cc1nc(Nc2ccccc2Cl)sc1C(=O)CC(=O)C(N)=O | 41.8 µM (inactive) | > 100 µM (inactive) | 33.7 | > 100 µM (inactive) | 7.98 µM (inactive) | 13.2 µM (inactive) | 29.3 µM (inactive) | 57.4 µM (inactive) | 16 µM (inactive) | 19.4 µM (inactive) | 22.7 µM (inactive) | 28.2 µM (inactive) | > 100 µM (inactive) | 54.7 µM (inactive) | 19.7 µM (inactive) | 34.8 µM (inactive) | 35.1 µM (inactive) | 44.9 µM (inactive) | 37.8 µM (inactive) | 35.1 µM (inactive)
COC(=O)c1cc(=O)n(-c2ccc3nn(C)nc3c2)cc1C(=O)OC | > 100 µM (inactive) | > 100 µM (inactive) | > 100 | > 100 µM (inactive) | > 100 µM (inactive) | > 100 µM (inactive) | > 100 µM (inactive) | > 100 µM (inactive) | > 100 µM (inactive) | > 100 µM (inactive) | > 100 µM (inactive) | > 100 µM (inactive) | > 100 µM (inactive) | > 100 µM (inactive) | > 100 µM (inactive) | > 100 µM (inactive) | > 100 µM (inactive) | > 100 µM (inactive) | > 100 µM (inactive) | > 100 µM (inactive)
O=c1c2ccccc2n2nnc3ccc(NCCNCCO)c1c32 | 1.16 µM (inactive) | 2.02 µM (inactive) | 2.03 | 2.08 µM (inactive) | 1.88 µM (inactive) | 1.66 µM (inactive) | 3.24 µM (inactive) | 2.85 µM (inactive) | 1.34 µM (inactive) | 1.69 µM (inactive) | 2.29 µM (inactive) | 2.31 µM (inactive) | 1.71 µM (inactive) | 0.908 µM (active) | 1.29 µM (inactive) | 2.06 µM (inactive) | 3.19 µM (inactive) | 2.08 µM (inactive) | 1.43 µM (inactive) | 2.42 µM (inactive)
CC(=O)O[C@H]1C(=O)[C@@]2(C)C(C(OC(=O)c3ccccc3)[C@]3(O)C[C@H](OC(=O)C(OC(=O)CCCC(=O)NCCCN(C)C)C(NC(=O)c4ccccc4)c4ccccc4)C(C)=C1C3(C)C)C1(OC(C)=O)COC1C[C@@H]2O (stereo not given in full) | < 0.01 µM (active) | 0.0101 µM (active) | 0.406 | 0.016 µM (active) | 2.19 µM (inactive) | < 0.01 µM (active) | < 0.01 µM (active) | < 0.0125 µM (active) | < 0.01 µM (active) | < 0.01 µM (active) | 0.495 µM (active) | < 0.01 µM (active) | 8.71 µM (inactive) | < 0.01 µM (active) | < 0.01 µM (active) | 0.02 µM (active) | < 0.01 µM (active) | 0.0141 µM (active) | < 0.0122 µM (active) | < 0.01 µM (active)
C1CN2CCNCCN(CCN1)CC2 | > 100 µM (inactive) | > 100 µM (inactive) | > 100 | > 100 µM (inactive) | > 100 µM (inactive) | > 100 µM (inactive) | > 100 µM (inactive) | > 100 µM (inactive) | > 100 µM (inactive) | > 100 µM (inactive) | > 100 µM (inactive) | > 100 µM (inactive) | > 100 µM (inactive) | > 100 µM (inactive) | > 100 µM (inactive) | > 100 µM (inactive) | > 100 µM (inactive) | > 100 µM (inactive) | > 100 µM (inactive) | > 100 µM (inactive)
